Measurements published in patent US10407445B2, “Hepatitis C virus inhibitors” (ENANTA PHARMACEUTICALS, INC., priority 2013, dated 2019).
pEC50: −log10 of the molar value. Like-named read-outs stand apart in the source and are kept apart here.

What was measured:
Type in all cases: cell-based
[1] = test system: GT1a replicon encoding NS5A mutation Y93C; assay: Transient replication assay, GT1a replicon with NS5A mutation Y93C; conditions: Hepatitis C virus; for pEC50: read-out: EC50 1a Y93C
[2] = test system: GT1a replicon encoding NS5A mutation Q30R; assay: Transient replication assay, GT1a replicon with NS5A mutation Q30R; conditions: Hepatitis C virus; for pEC50: read-out: EC50 1a Q30R
[3] = test system: HCV GT 1a replicon; assay: HCV replicon assay, stable GT 1a replicon (Renilla luciferase); conditions: Hepatitis C virus, GT1A; for pEC50: HCV GT 1a replicon, 72 h, read-out: EC50 1a
Outline: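 Huh-7.5 cells stably carrying a GT1a replicon (H77-based) with Renilla luciferase-Neo reporter, 4000 cells/well, sixteen-point half-log compound series, phenol red-free DMEM without G418. Luciferase read after 72 h relative to DMSO-treated cells gives EC50.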

Row | SMILES | pEC50 [1] | pEC50 [2] | pEC50 [3] | EC50 ([1]; read-out: EC50 (nM) 1a Y93C) [nM] | EC50 ([2]; read-out: EC50 (nM) 1a Q30R) [nM] | EC50 ([3]; comparative table, GT 1a, read-out: EC50 (nM) 1a) [nM]
1 | COC(=O)N[C@H](C(=O)N1C[C@]2(CCCOC2)C[C@H]1c1nc2ccc3cc(-c4ccc(-c5cnc([C@@H]6C[C@@H]7CCC[C@@H]7N6C(=O)[C@@H](NC(=O)OC)C(C)C)[nH]5)cc4)ccc3c2[nH]1)C(C)C [Compound 10] | 9.70 | 10.70 | 11.30 | – | – | –
2 | COC(=O)N[C@H](C(=O)N1C[C@]2(CCCOC2)C[C@H]1c1ncc(-c2ccc(-c3ccc4c(c3)OCc3nc([C@@H]5CCCN5C(=O)[C@@H](NC(=O)OC)C(C)C)[nH]c3-4)cc2)[nH]1)C(C)C [Compound 30] | 9.30 | 10.00 | 10.30 | – | – | –
3 | COC(=O)N[C@H](C(=O)N1C[C@]2(CCCOC2)C[C@H]1c1nc2ccc3cc(-c4ccc(-c5cnc([C@@H]6C[C@@H]7C[C@@H]7N6C(=O)[C@@H](NC(=O)OC)C(C)C)[nH]5)cc4)ccc3c2[nH]1)C(C)C [Compound 22] | 9.52 | 10.00 | 11.05 | – | – | –
4 | COC(=O)N[C@H](C(=O)N1C[C@]2(CCCOC2)C[C@H]1c1nc2ccc3cc(-c4ccc(-c5cnc([C@@H]6C[C@@H]7CCCC[C@@H]7N6C(=O)[C@@H](NC(=O)OC)C(C)C)[nH]5)cc4)ccc3c2[nH]1)C(C)C [Compound 24] | 10.05 | 10.70 | 11.15 | – | – | –
5 | COC(=O)N[C@H](C(=O)N1[C@H](c2nc3ccc4cc(-c5ccc(-c6cnc([C@@H]7C[C@@]8(CCCOC8)CN7C(=O)[C@@H](NC(=O)OC)C7C[C@@H](C)O[C@H](C)C7)[nH]6)cc5)ccc4c3[nH]2)C[C@@H]2CCCC[C@@H]21)C(C)C (stereo in doubt) [Compound 38] | 11.40 | 11.70 | 11.10 | – | – | –
6 | COC(=O)N[C@H](C(=O)N1C[C@@]2(CCCO2)C[C@H]1c1ncc(-c2ccc(-c3ccc4c(ccc5nc([C@@H]6CCCN6C(=O)[C@@H](NC(=O)OC)C(C)C)[nH]c54)c3)cc2)[nH]1)C(C)C [Example 82] | 9.70 | 8.52 | 10.23 | – | – | –
7 | COC(=O)N[C@H](C(=O)N1C[C@]2(CCCOC2)C[C@H]1c1nc2ccc3cc(-c4ccc5c(ccc6nc([C@@H]7C[C@@H]8CCCC[C@@H]8N7C(=O)[C@@H](NC(=O)OC)C(C)C)[nH]c65)c4)ccc3c2[nH]1)C(C)C [Compound 23] | 10.70 | 11.00 | 10.92 | – | – | –
8 | COC(=O)N[C@H](C(=O)N1C[C@]2(CCCOC2)C[C@H]1c1ncc(-c2ccc(-c3ccc4c(ccc5nc([C@@H]6C[C@@H]7C[C@@H]7N6C(=O)[C@@H](NC(=O)OC)C(C)C)[nH]c54)c3)cc2)[nH]1)C(C)C [Compound 20] | 9.00 | 9.70 | 10.85 | – | – | –
9 | COC(=O)N[C@H](C(=O)N1CCC[C@H]1c1nc2ccc3cc(-c4ccc5c(ccc6nc([C@@H]7C[C@@]8(CCCOC8)CN7C(=O)[C@@H](NC(=O)OC)C(C)C)[nH]c65)c4)ccc3c2[nH]1)C(C)C [Compound 48] | 10.70 | 10.30 | 11.22 | – | – | –
10 | COC(=O)N[C@H](C(=O)N1CCC[C@H]1c1ncc(-c2ccc(-c3ccc4c(ccc5nc([C@@H]6CCCN6C(=O)[C@@H](NC(=O)OC)C(C)C)[nH]c54)c3)cc2)[nH]1)C(C)C [Example 102] | 9.22 | 9.00 | 10.82 | – | – | –
11 | COC(=O)N[C@H](C(=O)N1C[C@]2(CCCOC2)C[C@H]1c1nc2ccc3cc(-c4ccc(-c5cnc([C@@H]6C[C@@H]7COC[C@@H]7N6C(=O)[C@@H](NC(=O)OC)C(C)C)[nH]5)cc4)ccc3c2[nH]1)C(C)C [Compound 34] | 10.05 | 10.70 | 10.62 | – | – | –
12 | COC(=O)N[C@H](C(=O)N1C[C@]2(CCCOC2)C[C@H]1c1ncc(-c2ccc(-c3ccc4c(ccc5nc([C@@H]6C[C@@]7(CCCOC7)CN6C(=O)[C@@H](NC(=O)OC)C(C)C)[nH]c54)c3)cc2)[nH]1)C(C)C [Compound 11] | 10.15 | 10.30 | 10.64 | – | – | –
13 | COC(=O)N[C@H](C(=O)N1CCC[C@H]1c1nc2c([nH]1)-c1ccc(-c3ccc4c(ccc5nc([C@@H]6C[C@@]7(CCCOC7)CN6C(=O)[C@@H](NC(=O)OC)C(C)C)[nH]c54)c3)cc1OC2)C(C)C [Compound 25] | 10.05 | 9.70 | 10.57 | – | – | –
14 | COC(=O)N[C@H](C(=O)N1C[C@]2(CCCOC2)C[C@H]1c1nc2ccc3cc(-c4ccc5c(ccc6nc([C@@H]7C[C@H]8C[C@H]8N7C(=O)[C@@H](NC(=O)OC)C(C)C)[nH]c65)c4)ccc3c2[nH]1)C(C)C [Compound 6] | 10.70 | 10.40 | 11.15 | – | – | –
15 | COC(=O)N[C@H](C(=O)N1CCC[C@H]1c1nc2ccc(C#Cc3ccc4c(ccc5nc([C@@H]6CCCN6C(=O)[C@@H](NC(=O)OC)C(C)C)[nH]c54)c3)cc2[nH]1)C(C)C [Example 103] | 8.70 | 8.52 | 10.92 | – | – | –
16 | COC(=O)N[C@H](C(=O)N1C[C@]2(CCCCO2)C[C@H]1c1nc(-c2ccc(-c3ccc4c(ccc5nc([C@@H]6CCCN6C(=O)[C@@H](NC(=O)OC)C(C)C)[nH]c54)c3)cc2)c[nH]1)C(C)C [Example 2] | 9.70 | 10.52 | 10.92 | – | – | –
17 | COC(=O)N[C@H](C(=O)N1C[C@]2(CCCOC2)C[C@H]1c1ncc(-c2ccc(-c3ccc4c(ccc5nc([C@@H]6CC7(CC7)CN6C(=O)[C@@H](NC(=O)OC)C(C)C)[nH]c54)c3)cc2)[nH]1)C(C)C [Compound 28] | 10.00 | 10.22 | 10.96 | – | – | –
18 | COC(=O)N[C@H](C(=O)N1C[C@@]2(CCCCO2)C[C@H]1c1nc(-c2ccc(-c3ccc4c(ccc5nc([C@@H]6CCCN6C(=O)[C@@H](NC(=O)OC)C(C)C)[nH]c54)c3)cc2)c[nH]1)C(C)C [Example 3] | 9.15 | 8.30 | 9.84 | – | – | –
19 | COC(=O)N[C@H](C(=O)N1C[C@]2(CCCOC2)C[C@H]1c1ncc(-c2ccc3c(ccc4cc(-c5cnc([C@@H]6C[C@@H]7CCCC[C@@H]7N6C(=O)[C@@H](NC(=O)OC)C(C)C)[nH]5)ccc43)c2)[nH]1)C(C)C [Compound 17] | 9.52 | 11.00 | 10.92 | – | – | –
20 | COC(=O)N[C@H](C(=O)N1C[C@]2(CCCOC2)C[C@H]1c1ncc(-c2ccc(-c3ccc4c(ccc5nc([C@@H]6CCCN6C(=O)[C@@H](NC(=O)OC)C(C)C)[nH]c54)c3)cc2)[nH]1)C(C)C [drawing 233] | – | – | – | 0.3 | 0.1 | 0.01
21 | COC(=O)N[C@H](C(=O)N1C[C@]2(CCCOC2)C[C@H]1c1nc2ccc3cc(-c4ccc5c(ccc6nc([C@@H]7C[C@@]8(CCCOC8)CN7C(=O)[C@@H](NC(=O)OC)C(C)C)[nH]c65)c4)ccc3c2[nH]1)C(C)C [Compound 31] | 11.15 | 10.70 | 10.52 | – | – | –
22 | COC(=O)N[C@H](C(=O)N1CCC[C@H]1c1nc2ccc3cc(-c4ccc5c(ccc6nc([C@@H]7CCCN7C(=O)[C@@H](NC(=O)OC)C(C)C)[nH]c65)c4)ccc3c2[nH]1)C(C)C [Example 101] | 9.30 | 9.70 | 10.96 | – | – | –
23 | COC(=O)N[C@H](C(=O)N1C[C@]2(CCCOC2)C[C@H]1c1ncc(-c2ccc(-c3ccc4c(c3)CCCc3nc([C@@H]5C[C@@H]6CCCC[C@@H]6N5C(=O)[C@@H](NC(=O)OC)C(C)C)[nH]c3-4)cc2)[nH]1)C(C)C [Compound 40] | 9.15 | 10.30 | 10.96 | – | – | –
